In patent US20220257633A1, “METHOD OF TREATING AGE-RELATED MACULAR DEGENERATION” (THE PROVOST, FELLOWS, FOUNDATION SCHOLARS, & THE O, priority 2021, published 2022):

System: CD45+CD66b−CD14+CD16+ monocytes
Assay: Surface CD86 on monocytes by flow cytometry
Type: cell-based, human
Settings: PBMCs treated with MCP-1 for 24 h; CD86 MFI
Procedure: PBMCs were labelled for the investigation of monocytes with the following fluorochrome-labelled antibodies: anti-CD16 (3G8) anti-CD86 (FM95) anti-CD45 (2D1); anti-CD66b (G10F5); CD14 (Tuk4); CD80 (2D10); (Biolegend or Miltenyi). Each staining well contained 4×10^5 cells; cells were stained with LIVE/DEAD Aqua (Molecular Probes) followed by staining for 20 min on ice, washed, and analyzed by flow cytometry immediately. Flow cytometry was carried out on a BD LSR Fortessa cell analyzer and analyzed using FlowJo software (Tree Star).

Substance: MCP-1: chemokine monocyte chemoattractant protein CCL2/MCP-1
- increase of CD86 membrane expression: ~1.4 fold
